Data as given in ChEMBL document CHEMBL1201862, “PubChem BioAssay data set” (2004).
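Dose response: 5 concentrations. Exposure: 48 h. Format: 96-well plates. Endpoint: linear interpolation; highest concentration if not reached. Here, GI50 denotes the concentration required for 50% inhibition of growth.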 Active and inactive are the calls of the source. Cut-off read from the data, not from the text of the source: active = GI50 up to about 1.1 µM and inactive = higher.

Assays:
Assay in all cases: NCI tumour cell line growth inhibition, 48 h
786-0 = system: 786-0
A498 = system: A498
A549 = system: A549
ACHN = system: ACHN
BT-549 = system: BT-549
CAKI-1 = system: CAKI-1
CCRF-CEM = system: CCRF-CEM
COLO 205 = system: COLO 205
DU-145 = system: DU-145
EKVX = system: EKVX
HCC 2998 = system: HCC 2998
HCT-116 = system: HCT-116
HCT-15 = system: HCT-15
HL-60 = system: HL-60
HOP-62 = system: HOP-62
HOP-92 = system: HOP-92
HT-29 = system: HT-29
Hs-578T = system: Hs-578T
IGROV-1 = system: IGROV-1
K562 = system: K562
KM12 = system: KM12
LOX IMVI = system: LOX IMVI
M14 = system: M14
MCF7 = system: MCF7
MDA-MB-231 = system: MDA-MB-231
MDA-MB-435 = system: MDA-MB-435
MDA-N = system: MDA-N
MOLT-4 = system: MOLT-4
Malme-3M = system: Malme-3M
NCI-H226 = system: NCI-H226
NCI-H23 = system: NCI-H23
NCI-H460 = system: NCI-H460
NCI-H522 = system: NCI-H522
NCI/ADR-RES = system: NCI/ADR-RES
OVCAR-3 = system: OVCAR-3
OVCAR-4 = system: OVCAR-4
OVCAR-5 = system: OVCAR-5
OVCAR-8 = system: OVCAR-8
PC-3 = system: PC-3
RPMI-8226 = system: RPMI-8226
RXF 393 = system: RXF 393
SF-268 = system: SF-268
SF-295 = system: SF-295
SF-539 = system: SF-539
SK-MEL-28 = system: SK-MEL-28
SK-MEL-2 = system: SK-MEL-2
SK-MEL-5 = system: SK-MEL-5
SK-OV-3 = system: SK-OV-3
SN12C = system: SN12C
SNB-19 = system: SNB-19
SNB-75 = system: SNB-75
SR = system: SR
SW-620 = system: SW-620
TK-10 = system: TK-10
U-251 = system: U-251
UACC-257 = system: UACC-257
UACC-62 = system: UACC-62
UO-31 = system: UO-31

**Q.** `CN(C)c1ccc(/C=c2\c3ccccc3n3c2cc(-c2ccccc2)[n+]3C)cc1` was tested. Which GI50 (786-0) did it give?
**A.** The GI50 was 142 nM (active).

**Q.** And the GI50 (A498)?
**A.** The GI50 was 1420 nM (inactive).

**Q.** What about the GI50 (A549) of the same molecule?
**A.** Its GI50 is 201 nM (active).

**Q.** What about the GI50 (ACHN) of the same molecule?
**A.** The GI50 was 368 nM (active).

**Q.** What about the GI50 (BT-549) of the same molecule?
**A.** Its GI50 is 30.4 nM (active).

**Q.** What about the GI50 (CAKI-1) of the same molecule?
**A.** Its GI50 is 716 nM (active).

**Q.** And the GI50 (CCRF-CEM)?
**A.** The GI50 was 63.5 nM (active).

**Q.** And the GI50 (COLO 205)?
**A.** Its GI50 is 14.3 nM (active).

**Q.** What about the GI50 (DU-145) of the same molecule?
**A.** The GI50 was 222 nM (active).

**Q.** And the GI50 (EKVX)?
**A.** The GI50 was 320 nM (active).

**Q.** What about the GI50 (HCC 2998) of the same molecule?
**A.** Its GI50 is 1350 nM (inactive).

**Q.** What about the GI50 (HCT-116) of the same molecule?
**A.** Its GI50 is 85.3 nM (active).

**Q.** And the GI50 (HCT-15)?
**A.** The GI50 was 1200 nM.

**Q.** And the GI50 (HL-60)?
**A.** Its GI50 is 28.3 nM (active).

**Q.** And the GI50 (HOP-62)?
**A.** The GI50 was 303 nM (active).

**Q.** What about the GI50 (HOP-92) of the same molecule?
**A.** The GI50 was 284 nM (active).

**Q.** What about the GI50 (HT-29) of the same molecule?
**A.** The GI50 was 89.1 nM (active).

**Q.** And the GI50 (Hs-578T)?
**A.** Its GI50 is 33.5 nM (active).

**Q.** What about the GI50 (IGROV-1) of the same molecule?
**A.** Its GI50 is 68.9 nM (active).

**Q.** What about the GI50 (K562) of the same molecule?
**A.** The GI50 was 70 nM (active).

**Q.** What about the GI50 (KM12) of the same molecule?
**A.** Its GI50 is 185 nM (active).

**Q.** What about the GI50 (LOX IMVI) of the same molecule?
**A.** Its GI50 is 118 nM (active).

**Q.** And the GI50 (M14)?
**A.** The GI50 was 157 nM (active).

**Q.** What about the GI50 (MCF7) of the same molecule?
**A.** The GI50 was 124 nM (active).

**Q.** What about the GI50 (MDA-MB-231) of the same molecule?
**A.** The GI50 was 222 nM (active).

**Q.** And the GI50 (MDA-MB-435)?
**A.** Its GI50 is 91.6 nM (active).

**Q.** What about the GI50 (MDA-N) of the same molecule?
**A.** The GI50 was 144 nM (active).

**Q.** What about the GI50 (MOLT-4) of the same molecule?
**A.** Its GI50 is 91.4 nM (active).

**Q.** And the GI50 (Malme-3M)?
**A.** Its GI50 is 153 nM (active).

**Q.** What about the GI50 (NCI-H226) of the same molecule?
**A.** Its GI50 is < 10 nM (active).

**Q.** What about the GI50 (NCI-H23) of the same molecule?
**A.** Its GI50 is 58.2 nM (active).

**Q.** What about the GI50 (NCI-H460) of the same molecule?
**A.** The GI50 was 103 nM (active).

**Q.** What about the GI50 (NCI-H522) of the same molecule?
**A.** The GI50 was 19.3 nM (active).

**Q.** And the GI50 (NCI/ADR-RES)?
**A.** The GI50 was 4450 nM (inactive).

**Q.** What about the GI50 (OVCAR-3) of the same molecule?
**A.** The GI50 was 75.2 nM (active).

**Q.** What about the GI50 (OVCAR-4) of the same molecule?
**A.** The GI50 was 809 nM (active).

**Q.** And the GI50 (OVCAR-5)?
**A.** The GI50 was 670 nM (active).

**Q.** And the GI50 (OVCAR-8)?
**A.** The GI50 was 72.6 nM (active).

**Q.** And the GI50 (PC-3)?
**A.** Its GI50 is 72.6 nM (active).

**Q.** And the GI50 (RPMI-8226)?
**A.** The GI50 was 17.2 nM (active).

**Q.** What about the GI50 (RXF 393) of the same molecule?
**A.** The GI50 was 547 nM (active).

**Q.** And the GI50 (SF-268)?
**A.** Its GI50 is 261 nM (active).

**Q.** And the GI50 (SF-295)?
**A.** Its GI50 is 213 nM (active).

**Q.** What about the GI50 (SF-539) of the same molecule?
**A.** The GI50 was 40.6 nM (active).

**Q.** And the GI50 (SK-MEL-28)?
**A.** The GI50 was 365 nM (active).

**Q.** What about the GI50 (SK-MEL-2) of the same molecule?
**A.** Its GI50 is 175 nM (active).

**Q.** What about the GI50 (SK-MEL-5) of the same molecule?
**A.** The GI50 was 72.8 nM (active).

**Q.** And the GI50 (SK-OV-3)?
**A.** Its GI50 is 303 nM (active).

**Q.** What about the GI50 (SN12C) of the same molecule?
**A.** Its GI50 is 149 nM (active).

**Q.** And the GI50 (SNB-19)?
**A.** The GI50 was 77.1 nM (active).

**Q.** And the GI50 (SNB-75)?
**A.** Its GI50 is 61 nM (active).

**Q.** And the GI50 (SR)?
**A.** The GI50 was 160 nM (active).

**Q.** And the GI50 (SW-620)?
**A.** The GI50 was 119 nM (active).

**Q.** And the GI50 (TK-10)?
**A.** Its GI50 is 624 nM (active).

**Q.** And the GI50 (U-251)?
**A.** The GI50 was 32.2 nM (active).

**Q.** What about the GI50 (UACC-257) of the same molecule?
**A.** Its GI50 is 243 nM (active).

**Q.** What about the GI50 (UACC-62) of the same molecule?
**A.** The GI50 was 365 nM (active).

**Q.** What about the GI50 (UO-31) of the same molecule?
**A.** Its GI50 is 383 nM (active).
